Values joined by “and” are separate entries in the source; they are usually repeats but may differ in a detail not shown here. Equal values may be shown once.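 GI50 marks 50% less growth. TGI: total growth inhibition.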
Legend:
Experiment in all cases: inhibition of tumour cell growth, NCI panel, 384-well format
[1] = test system: MDA-MB-435 melanoma
[2] = test system: MDA-MB-468 breast
[3] = test system: SF-295 CNS
[4] = test system: UACC-257 melanoma
[5] = test system: NCI-H460 NSCLC
[6] = test system: LOX IMVI melanoma
[7] = test system: RXF 393 renal
[8] = test system: HOP-92 NSCLC
[9] = test system: PC-3 prostate
[10] = test system: CAKI-1 renal
[11] = test system: CCRF-CEM leukemia
[12] = test system: K-562 leukemia
[13] = test system: SN12C renal
[14] = test system: OVCAR-3 ovarian
[15] = test system: U251 glioblastoma
[16] = test system: NCI-H322M lung
[17] = test system: A549 NSCLC
[18] = test system: SK-MEL-28 melanoma
[19] = test system: SK-OV-3 ovarian
[20] = test system: IGROV1 ovarian
[21] = test system: OVCAR-5 ovarian
[22] = test system: RPMI-8226 leukemia
[23] = test system: SNB-75 CNS
[24] = test system: KM12 colon
[25] = test system: MCF7 breast
[26] = test system: TK-10 renal
[27] = test system: COLO 205 colon
[28] = test system: OVCAR-8 ovarian
[29] = test system: HOP-62 NSCLC
[30] = test system: M14 melanoma
[31] = test system: HT29 colon
[32] = test system: NCI-H522 lung
[33] = test system: SK-MEL-5 melanoma
[34] = test system: OVCAR-4 ovarian
[35] = test system: DU-145 prostate
[36] = test system: BT-549 breast
[37] = test system: MDA-MB-231 breast
[38] = test system: NCI-H226 lung
[39] = test system: MALME-3M melanoma
[40] = test system: SNB-19 CNS
[41] = test system: HCT-15 colon
[42] = test system: UO-31 renal
[43] = test system: SR leukemia
[44] = test system: HS 578T breast
[45] = test system: A498 renal
[46] = test system: MOLT-4 leukemia
[47] = test system: EKVX NSCLC
[48] = test system: HCT-116 colon
[49] = test system: T-47D breast
[50] = test system: 786-0 renal
[51] = test system: NCI-H23 lung
[52] = test system: UACC-62 melanoma
[53] = test system: SK-MEL-2 melanoma
[54] = test system: ACHN renal
[55] = test system: SF-268 CNS
[56] = test system: HL-60(TB) leukemia
[57] = test system: NCI/ADR-RES ovarian
[58] = test system: SF-539 CNS
[59] = test system: HCC-2998 colon
[60] = test system: SW-620 colon

COc1c(OCCCN2CCOCC2)ccc2c3n(c(=NC(=O)c4cnc(N)nc4)nc12)CCN3
GI50 [1]: 237 nM
TGI [1]: > 100000 nM
GI50 [2]: 15.3 nM and 20.4 nM
TGI [2]: 79.7 nM and 138 nM
GI50 [3]: 177 nM and 135 nM
GI50 [4]: 172 nM and 201 nM
TGI [4]: 10300 nM and 3800 nM
GI50 [5]: 21.5 nM and 25.9 nM
TGI [5]: > 100000 nM
GI50 [6]: 154 nM
TGI [6]: 1210 nM
GI50 [7]: 174 nM and 47 nM
TGI [7]: 611 nM and 162 nM
GI50 [8]: 38.5 nM and 35 nM
GI50 [9]: 66.8 nM and 34.4 nM
GI50 [10]: 27 nM and 72.4 nM
TGI [10]: 317 nM
GI50 [11]: 18 nM and 38.6 nM
TGI [11]: 5610 nM and 1330 nM
GI50 [12]: 2250 nM
TGI [12]: > 50000 nM
GI50 [13]: 77.7 nM
TGI [13]: > 50000 nM
GI50 [14]: 69 nM and 43.9 nM
TGI [14]: 556 nM and 619 nM
GI50 [15]: 314 nM and 510 nM
TGI [15]: > 100000 nM
GI50 [16]: 93.3 nM and 38.9 nM
GI50 [17]: 67.7 nM and 54.1 nM
TGI [17]: 849 nM and 908 nM
GI50 [18]: 71 nM and 56.2 nM
TGI [18]: 2560 nM
GI50 [19]: 10.1 nM
TGI [19]: 63.7 nM
GI50 [20]: < 5 nM
TGI [20]: 16.5 nM and 29.9 nM
GI50 [21]: 51.9 nM and 152 nM
TGI [21]: > 100000 nM
GI50 [22]: 129 nM and 122 nM
TGI [22]: 441 nM and 285 nM
GI50 [23]: 7.16 nM and < 13.2 nM
TGI [23]: 31.7 nM and 81.4 nM
GI50 [24]: 436 nM and 316 nM
TGI [24]: > 100000 nM
GI50 [25]: < 5 nM
TGI [25]: > 50000 nM
GI50 [26]: 22.8 nM and 28 nM
TGI [26]: 583 nM and 612 nM
GI50 [27]: 26.9 nM and 48.5 nM
TGI [27]: 3670 nM and 3440 nM
GI50 [28]: 118 nM and 219 nM
TGI [28]: > 50000 nM
GI50 [29]: 167 nM and 385 nM
TGI [29]: > 100000 nM
GI50 [30]: 190 nM and 158 nM
TGI [30]: > 50000 nM
GI50 [31]: 22.9 nM
TGI [31]: > 50000 nM
GI50 [32]: 147 nM and 151 nM
TGI [32]: > 50000 nM and 5610 nM
GI50 [33]: 69.8 nM and 95.1 nM
TGI [33]: 197 nM and 431 nM
GI50 [34]: 419 nM and 388 nM
TGI [34]: 15700 nM and 3430 nM
GI50 [35]: 128 nM and 164 nM
TGI [35]: > 100000 nM
GI50 [36]: 102 nM and 65.3 nM
TGI [36]: 2870 nM and 648 nM
GI50 [37]: 1960 nM and 219 nM
GI50 [38]: 160 nM and 90.8 nM
TGI [38]: > 50000 nM
GI50 [39]: 74.5 nM and 22.8 nM
TGI [39]: 396 nM and 204 nM
GI50 [40]: 572 nM and 1040 nM
TGI [40]: > 100000 nM
GI50 [41]: 47.8 nM and 78.3 nM
TGI [41]: > 50000 nM
GI50 [42]: 30.5 nM
TGI [42]: 258 nM
GI50 [43]: 215 nM and 198 nM
TGI [43]: 3020 nM and 714 nM
GI50 [44]: 55.7 nM and 30 nM
TGI [44]: 289 nM and 347 nM
GI50 [45]: 53.9 nM and 68.3 nM
TGI [45]: 146 nM and 470 nM
GI50 [46]: 17.3 nM and < 11.8 nM
TGI [46]: 101 nM and 38.5 nM
GI50 [47]: 22 nM and 56.8 nM
TGI [47]: 289 nM and 1160 nM
GI50 [48]: 101 nM and 163 nM
TGI [48]: > 50000 nM
GI50 [49]: < 5 nM
TGI [49]: 25.6 nM and < 10.6 nM
GI50 [50]: 177 nM and 242 nM
TGI [50]: 14000 nM
GI50 [51]: 472 nM and 248 nM
TGI [51]: > 50000 nM
GI50 [52]: 82 nM and 84.4 nM
TGI [52]: 237 nM and 362 nM
GI50 [53]: 224 nM
TGI [53]: 7360 nM
GI50 [54]: 26.6 nM and 108 nM
GI50 [55]: 132 nM and 268 nM
TGI [55]: 29100 nM
GI50 [56]: < 5 nM
GI50 [57]: 1970 nM and 424 nM
TGI [57]: > 100000 nM
GI50 [58]: 103 nM and 96.9 nM
GI50 [59]: 82.3 nM and 138 nM
TGI [59]: 5440 nM and 766 nM
GI50 [60]: 270 nM and 656 nM
TGI [60]: > 100000 nM
